The values that follow come from ChEMBL document CHEMBL6109084 (Eur J Med Chem, 2025).

Converted amounts (≈) assume the structure as drawn. “And” between values parts separate entries of the source, which are not always exact repeats. Equal entries are not always repeated. The source made the active and inactive calls. The calls are words filed in the database; no cut-off is given here. Bounds are passed on as bounds.

Usually IC50 stands for the concentration that gives 50% inhibition. Low values mean greater potency, high ones weaker potency. By kinetic solubility is commonly meant solubility judged after dilution from a stock solution rather than from solid.

Series [1] addresses Coagulation factor XI (Homo sapiens, UniProt P03951). In words: Inhibition of human FXIa using p-Glu-Pro-Arg-pNA.HCl as substrate incubated for 30 mins followed by substrate addition and measured after 60 mins by microplate reader analysis.
The target of series [2] is T1, Coagulation factor XII (Homo sapiens, UniProt P00748).
T1 sequence (P00748 whole entry): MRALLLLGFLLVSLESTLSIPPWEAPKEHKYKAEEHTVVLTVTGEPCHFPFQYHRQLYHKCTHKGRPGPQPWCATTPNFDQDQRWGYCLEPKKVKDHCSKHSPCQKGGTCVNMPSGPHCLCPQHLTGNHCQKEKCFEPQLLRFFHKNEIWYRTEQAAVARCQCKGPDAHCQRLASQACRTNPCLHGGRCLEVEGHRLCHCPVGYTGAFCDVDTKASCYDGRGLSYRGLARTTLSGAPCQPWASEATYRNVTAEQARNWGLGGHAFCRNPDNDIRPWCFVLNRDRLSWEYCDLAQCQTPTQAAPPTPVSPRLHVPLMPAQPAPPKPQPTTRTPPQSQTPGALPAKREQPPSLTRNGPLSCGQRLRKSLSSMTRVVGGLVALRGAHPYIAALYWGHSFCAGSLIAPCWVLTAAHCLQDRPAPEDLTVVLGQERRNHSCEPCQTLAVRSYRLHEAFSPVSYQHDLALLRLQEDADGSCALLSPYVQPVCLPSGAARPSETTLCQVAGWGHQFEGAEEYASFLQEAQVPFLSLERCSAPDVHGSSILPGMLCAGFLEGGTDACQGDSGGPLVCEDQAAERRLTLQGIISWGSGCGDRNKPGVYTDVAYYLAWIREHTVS
As to the kind of experiment: Inhibition of FXIIa (unknown origin) using H-D-ProPhe-Arg-pNA.2HCl as substrate incubated for 30 mins followed by substrate addition and measured after 60 mins by microplate reader analysis.

The target in series [3] is Coagulation factor X (Homo sapiens, UniProt P00742). In words: Inhibition of FXa (unknown origin) using Z-D-Arg-Gly-Arg-pNA.2HCl as substrate incubated for 30 mins followed by substrate addition and measured after 60 mins by microplate reader analysis.
Coagulation factor X, sequence (P00742 41-179 limits assumed): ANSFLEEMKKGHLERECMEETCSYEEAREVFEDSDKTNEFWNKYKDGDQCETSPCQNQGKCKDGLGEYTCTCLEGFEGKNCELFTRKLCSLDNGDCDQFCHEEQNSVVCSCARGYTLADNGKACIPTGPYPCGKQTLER
Coagulation factor X, sequence (P00742 235-488 limits assumed): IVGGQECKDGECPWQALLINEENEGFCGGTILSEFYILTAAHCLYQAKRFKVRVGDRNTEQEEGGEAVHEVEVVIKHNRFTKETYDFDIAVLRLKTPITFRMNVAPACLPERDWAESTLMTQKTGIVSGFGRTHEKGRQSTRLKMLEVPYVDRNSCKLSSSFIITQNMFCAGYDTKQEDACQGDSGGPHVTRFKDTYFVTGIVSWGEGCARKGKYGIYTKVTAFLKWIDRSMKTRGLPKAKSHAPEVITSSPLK
A short description of series [4]: Selectivity index, ratio of IC50 for inhibition of FXIIa (unknown origin) using H-D-ProPhe-Arg-pNA.2HCl as substrate to IC50 for inhibition of human FXIa using p-Glu-Pro-Arg-pNA.HCl as substrate.
The target in series [5] is Chymotrypsin (Homo sapiens, UniProt Q99895+P17538+P40313+Q6GPI1). In words: Inhibition of chymotrypsin (unknown origin) using N-Suc-Ala-Ala-Pro-Phe-pNA as substrate incubated for 30 mins followed by substrate addition and measured after 60 mins by microplate reader analysis. It is filed as protein assay.
In series [6] the test system is HK-2. As to the kind of experiment: Cytotoxicity against human HK-2 cells assessed as reduction in cell viability at 10 to 50 uM incubated for 24 hrs by MTT assay. It counts as toxicity, cell-based. The conditions noted are these: hk-2, 24 h, dose 10-50 µM. Background: Tetrazolium dyes change colour on reduction, which living cells bring about.
The target in series [7] is Trypsin (Homo sapiens, UniProt P07477+P07478+P35030). As to the kind of experiment: Inhibition of trypsin (unknown origin) using Bz-Ile-Glu(gamma-OR)-Gly-Arg-pNA.HCl as substrate incubated for 30 mins followed by substrate addition and measured after 60 mins by microplate reader analysis. It is filed as protein assay.
Series [8] is described as follows: Selectivity index, ratio of IC50 for inhibition of plasmin (unknown origin) using PyroGlu-Phe-Lys-pNA.HCl as substrate to IC50 for inhibition of human FXIa using p-Glu-Pro-Arg-pNA.HCl as substrate.
Series [9] relates to Plasma. In words: Anticoagulant activity in citrated human plasma assessed as prolongation of prothrombin time incubated for 3 mins by PT reagent based automated coagulometric analysis. It is filed as functional, cell-free.
The target in series [10] is Plasminogen (Homo sapiens, UniProt P00747). As to the kind of experiment: Inhibition of plasmin (unknown origin) using PyroGlu-Phe-Lys-pNA.HCl as substrate incubated for 30 mins followed by substrate addition and measured after 60 mins by microplate reader analysis.
Plasminogen, sequence (P00747 97-580 limits assumed): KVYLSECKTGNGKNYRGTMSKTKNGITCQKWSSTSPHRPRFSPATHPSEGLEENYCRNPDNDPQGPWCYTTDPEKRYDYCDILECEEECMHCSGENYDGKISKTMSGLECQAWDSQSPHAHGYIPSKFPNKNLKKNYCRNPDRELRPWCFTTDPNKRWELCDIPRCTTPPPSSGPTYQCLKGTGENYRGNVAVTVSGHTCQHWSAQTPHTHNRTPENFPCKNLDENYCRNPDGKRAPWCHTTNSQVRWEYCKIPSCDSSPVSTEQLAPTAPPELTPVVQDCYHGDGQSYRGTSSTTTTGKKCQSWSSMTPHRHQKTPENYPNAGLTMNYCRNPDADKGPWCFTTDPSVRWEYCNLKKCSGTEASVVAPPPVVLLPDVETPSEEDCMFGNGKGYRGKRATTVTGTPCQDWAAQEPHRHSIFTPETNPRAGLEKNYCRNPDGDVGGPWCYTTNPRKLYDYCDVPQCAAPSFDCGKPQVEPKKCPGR
Plasminogen, sequence (P00747 581-810 limits assumed): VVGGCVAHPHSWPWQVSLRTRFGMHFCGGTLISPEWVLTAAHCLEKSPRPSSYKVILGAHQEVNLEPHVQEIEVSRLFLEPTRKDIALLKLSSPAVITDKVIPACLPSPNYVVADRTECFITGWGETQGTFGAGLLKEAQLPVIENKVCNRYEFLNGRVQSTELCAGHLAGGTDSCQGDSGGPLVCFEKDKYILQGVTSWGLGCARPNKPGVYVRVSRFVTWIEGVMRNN
Series [11] can be described thus: Selectivity index, ratio of IC50 for inhibition of FXa (unknown origin) using Z-D-Arg-Gly-Arg-pNA.2HCl as substrate to IC50 for inhibition of human FXIa using p-Glu-Pro-Arg-pNA.HCl as substrate.
In series [12] the target is Tissue-type plasminogen activator (Homo sapiens, UniProt P00750). In words: Inhibition of tPA (unknown origin) using H-D-Ile-Pro-Arg-pNA-2HCl as substrate incubated for 30 mins followed by substrate addition and measured after 60 mins by microplate reader analysis.
Tissue-type plasminogen activator, sequence (P00750 whole entry): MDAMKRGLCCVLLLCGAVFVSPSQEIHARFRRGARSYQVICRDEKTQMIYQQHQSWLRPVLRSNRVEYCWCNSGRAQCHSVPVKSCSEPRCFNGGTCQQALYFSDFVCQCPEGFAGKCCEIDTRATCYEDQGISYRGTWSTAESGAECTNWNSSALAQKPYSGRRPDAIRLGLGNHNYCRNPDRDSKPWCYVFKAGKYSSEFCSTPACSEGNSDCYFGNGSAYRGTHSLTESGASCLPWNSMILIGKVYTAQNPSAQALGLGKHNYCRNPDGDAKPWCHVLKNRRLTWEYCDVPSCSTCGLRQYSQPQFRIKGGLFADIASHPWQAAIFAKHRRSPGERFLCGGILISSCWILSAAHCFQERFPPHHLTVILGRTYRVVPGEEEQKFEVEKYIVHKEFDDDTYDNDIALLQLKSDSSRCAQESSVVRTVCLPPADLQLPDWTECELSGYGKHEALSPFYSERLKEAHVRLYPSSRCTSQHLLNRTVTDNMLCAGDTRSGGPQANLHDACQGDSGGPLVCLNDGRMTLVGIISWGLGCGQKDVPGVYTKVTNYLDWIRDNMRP
In series [13] the test system is Plasma. In words: Anticoagulant activity in citrated human plasma assessed as prolongation of activated partial thromboplastin time incubated for 3 mins by aPTT reagent based automated coagulometric analysis. The conditions noted are these: for EC1.5: 0.05 h. It is filed as functional.
Series [14] has as its target Prothrombin (Homo sapiens, UniProt P00734). As to the kind of experiment: Inhibition of thrombin (unknown origin) using H-D-Phe-Pip-Arg-pNA.2HCl as substrate incubated for 30 mins followed by substrate addition and measured after 60 mins by microplate reader analysis.
The nature of series [15]: Selectivity index, ratio of IC50 for inhibition of chymotrypsin (unknown origin) using N-Suc-Ala-Ala-Pro-Phe-pNA as substrate to IC50 for inhibition of human FXIa using p-Glu-Pro-Arg-pNA.HCl as substrate.
Series [16] is described as follows: Selectivity index, ratio of IC50 for inhibition of thrombin (unknown origin) using H-D-Phe-Pip-Arg-pNA.2HCl as substrate to IC50 for inhibition of human FXIa using p-Glu-Pro-Arg-pNA.HCl as substrate.
For series [17], the system named is Plasma. As to the kind of experiment: Anticoagulant activity in citrated human plasma assessed as prolongation of activated partial thromboplastin time at 1 uM incubated for 3 mins by aPTT reagent based automated coagulometric analysis relative to control. It counts as functional. The conditions noted are these: 0.05 h.
The nature of series [18]: Selectivity index, ratio of IC50 for inhibition of trypsin (unknown origin) using Bz-Ile-Glu(gamma-OR)-Gly-Arg-pNA.HCl as substrate to IC50 for inhibition of human FXIa using p-Glu-Pro-Arg-pNA.HCl as substrate.
Series [19] is described as follows: physchem. The conditions noted are these: aqueous medium, pH 7.4.
Description: Aqueous solubility of the compound in DMSO at pH 7.4 incubated for 12 hrs by turbidimetric based UV spectrophotometric analysis
Series [20] in a line: Selectivity index, ratio of IC50 for inhibition of tPA (unknown origin) using H-D-Ile-Pro-Arg-pNA-2HCl as substrate to IC50 for inhibition of human FXIa using p-Glu-Pro-Arg-pNA.HCl as substrate.
The target of series [21] is Plasma kallikrein (Homo sapiens, UniProt P03952). In words: Inhibition of PKal (unknown origin) using H-D-Pro-Phe-Arg-pNA.2HCl as substrate incubated for 30 mins followed by substrate addition and measured after 60 mins by microplate reader analysis.
Plasma kallikrein, sequence (P03952 20-390 limits assumed): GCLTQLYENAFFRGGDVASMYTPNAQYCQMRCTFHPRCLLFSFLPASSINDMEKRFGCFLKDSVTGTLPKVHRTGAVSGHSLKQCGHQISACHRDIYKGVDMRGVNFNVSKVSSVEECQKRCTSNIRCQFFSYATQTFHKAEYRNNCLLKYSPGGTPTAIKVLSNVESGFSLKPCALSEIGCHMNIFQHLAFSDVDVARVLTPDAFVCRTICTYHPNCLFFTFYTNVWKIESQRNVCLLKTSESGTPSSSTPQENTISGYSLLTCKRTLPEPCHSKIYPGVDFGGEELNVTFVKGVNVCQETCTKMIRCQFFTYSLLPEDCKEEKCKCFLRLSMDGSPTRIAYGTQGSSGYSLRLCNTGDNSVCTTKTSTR
Plasma kallikrein, sequence (P03952 391-638 limits assumed): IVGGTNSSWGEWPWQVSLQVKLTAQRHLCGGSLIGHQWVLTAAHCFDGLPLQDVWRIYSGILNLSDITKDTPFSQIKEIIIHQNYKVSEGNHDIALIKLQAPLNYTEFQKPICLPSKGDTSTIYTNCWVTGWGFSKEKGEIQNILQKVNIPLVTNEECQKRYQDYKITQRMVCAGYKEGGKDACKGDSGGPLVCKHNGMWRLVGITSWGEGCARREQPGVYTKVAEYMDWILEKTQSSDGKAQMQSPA
Series [22] can be described thus: Cytotoxicity against human AC16 [Human hybrid] cells assessed as reduction in cell viability at 1 to 50 uM incubated for 24 hrs by MTT assay. It is filed as toxicity, cell-based. The conditions noted are these: dose 1-50 µM.
The nature of series [23]: Toxicity in C57BL/6J mouse assessed as prolongation of bleeding time at 30 mg/kg, IG measured after 30 mins by tail bleeding assay. It counts as organism-based. The conditions noted are these: in vivo, po, 0.5 h.
The subject of series [24] is Plasma. As to the kind of experiment: Anticoagulant activity in mouse plasma assessed as prolongation of activated partial thromboplastin time incubated for 3 mins by aPTT reagent based automated coagulometric analysis. It is filed as functional. The conditions noted are these: 0.05 h.
Series [25] relates to HK-2. In words: Cytotoxicity against human HK-2 cells assessed as reduction in cell viability at 1 to 50 uM incubated for 24 hrs by MTT assay. It is filed as toxicity, cell-based. The conditions noted are these: hk-2, 24 h, dose 1-50 µM.
For series [26], the system named is HepG2. As to the kind of experiment: Cytotoxicity against human HepG2 cells assessed as reduction in cell viability at 1 to 50 uM incubated for 24 hrs by MTT assay. It is filed as toxicity, cell-based. The conditions noted are these: hepg2, 24 h, dose 1-50 µM.
Series [27] in a line: Toxicity in male New Zealand white rabbit assessed as prolongation of bleeding time at 2 mg/kg, iv by ear bleeding assay. It is filed as organism-based, Oryctolagus cuniculus. The conditions noted are these: in vivo.
A short description of series [28]: Toxicity in C57BL/6J mouse assessed as prolongation of bleeding time at 10 mg/kg, IG measured after 30 mins by tail bleeding assay. It counts as organism-based. The conditions noted are these: in vivo, po, 0.5 h.

Coagulation factor XI, sequence (P03951 19-387 limits assumed): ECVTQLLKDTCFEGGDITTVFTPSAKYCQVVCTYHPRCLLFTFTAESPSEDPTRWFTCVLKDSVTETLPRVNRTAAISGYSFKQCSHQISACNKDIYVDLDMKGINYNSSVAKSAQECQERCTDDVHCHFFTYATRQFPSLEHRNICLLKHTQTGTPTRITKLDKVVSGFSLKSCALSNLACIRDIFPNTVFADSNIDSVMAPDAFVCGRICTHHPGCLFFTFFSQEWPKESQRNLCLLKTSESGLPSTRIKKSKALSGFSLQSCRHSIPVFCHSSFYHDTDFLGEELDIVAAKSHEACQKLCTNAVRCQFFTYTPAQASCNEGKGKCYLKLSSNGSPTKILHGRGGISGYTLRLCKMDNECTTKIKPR
Coagulation factor XI, sequence (P03951 388-625 limits assumed): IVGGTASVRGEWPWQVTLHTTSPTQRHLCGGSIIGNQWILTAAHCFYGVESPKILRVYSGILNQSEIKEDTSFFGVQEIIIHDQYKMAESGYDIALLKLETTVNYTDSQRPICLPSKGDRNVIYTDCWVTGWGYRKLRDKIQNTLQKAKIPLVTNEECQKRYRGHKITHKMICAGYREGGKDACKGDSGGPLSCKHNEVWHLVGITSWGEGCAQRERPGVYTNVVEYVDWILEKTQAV

For `CCC(c1cc(-c2ccc(N)nc2)ccn1)n1cc(OC)c(-c2cc(Cl)ccc2-n2cnnn2)cc1=O` (racemic), the IC50 in series [1] is 0.00037 µM; in series [2] it was over 1 µM; in series [3] it was over 1 µM; in [5], over 1 µM; in [7] it was over 1 µM; in [10], over 1 µM. Besides, the IC50 in series [12] was over 1 µM; in series [14], over 1 µM; in series [21] it was 0.081 µM. The Ratio IC50 in series [4], in [8], in series [11], in [15], in series [16] and in [18] was over 1000 throughout. Besides, the Ratio IC50 in [20] is over 1000. Besides, the Activity entry in [6] is “Toxic”; in [13], “Dose-dependent-effect”; in [17], 210.1%. In addition, the result in [9] was inactive. The EC1.5 in series [13] was 0.58 µM. The same compound returned a kinetic solubility at 12 h in series [19] of 0.108 mg/mL (≈ 210 µM).

`CC[C@@H](C(=O)Nc1ccc(C(N)=O)c(F)c1)n1cc(OC)c(-c2cc(Cl)ccc2-n2cc(C(F)(F)F)nn2)cc1=O`: the Activity result in [22] is “Non-toxic”; in series [23], “Non-toxic”; in series [13], “Dose-dependent-effect”; in [25], “Non-toxic”; in series [17] it was 250.8%; in series [26], “Non-toxic”. Besides, the concentration for half-maximal inhibition (IC50) in [2], in series [3], in [5], in series [7], in series [10] and in series [12] was over 1 µM each time. The same compound returned a 50% inhibitory concentration (IC50) in series [14] of over 1 µM. For the same compound, the EC1.5 entry in series [24] is “>=9.3 uM and >12.5 uM”; in [13] it was 0.42 µM.

In the case of `O=C(NC[C@H]1CN(c2ccc(N3CCOCC3=O)cc2)C(=O)O1)c1ccc(Cl)s1` [RIVAROXABAN], the Activity entry is given as “Non-toxic” in series [22]; “Toxic” in [27]; “Toxic” in [28]; “Non-toxic” in series [25]; “Non-toxic” in series [26].
